The values below come from patent US12678412B2, “Substituted tolans for the modulation of microbial colonization” (BioMendics, LLC, priority 2017, dated 2026).

Assay [1] has as its system Methicillin Resistant Staphylococcus aureus (MRSA, USA 400). Kind of assay: Colony forming assay, 24 h plate assay, MRSA USA 400. The conditions noted are these: Tobramycin 600 μg/mL, compared to the vehicle control, FIG. 9. It is filed as cell-based. The procedure:
Proliferating cultures of Methicillin Resistant Staphylococcus aureus (MRSA, USA 400) were used in a colony forming assay. Frozen stock cultures of MRSA USA 400 were thawed and grown overnight in tryptic soy broth (TSB) with shaking at 37° C. The overnight culture (0.5-1.0 mL) was added to 100 mL TSB and grown at 37° C. with shaking and monitored for an optical density of 0.55-0.60 in order to obtain a final inoculum suspension of approximately 10^8 CFU/mL.
BM3103 was suspended into a 70% v/v alcohol gel formulation to acquire the desired % w/v tested within the example. Each concentration was vortexed thoroughly until dissolved. Initial tested concentrations of BM3103 were 1, 0.5, and 0.1% w/v. These concentrations and the alcohol gel vehicle were mixed with equal parts of the 10^8 CFU/mL inoculum to obtain a final concentration of 0.5, 0.25, and 0.05% (22 mM, 11 mM, and 2 mM) BM3103. Tobramycin (600 μg/mL) served as the positive control. Vehicle and BM3103 formulations contained matching final concentration of 35% v/v alcohol.
BM3103 was dissolved into Transcutol (diethylene glycol monoethyl ether) at 2.5% w/v and vortexed until dissolved. This concentration was then serial diluted to achieve the remaining concentrations tested. Before plating, 100 μL of the final inoculum (10^8 CFU/mL) was mixed with 20 μL TSB broth and 80 μL of BM3103 doses or vehicle. Tobramycin, 600 μg/mL, served as the positive control. The final plating concentrations for BM3103 were 1, 0.5, 0.25, and 0.1% w/v (44 mM, 22 mM, 11 mM, 4 mM) BM3103. Vehicle and BM3103 formulations contained matching final concentration of 40% v/v Transcutol.
The above listed formulations combined with the MRSA inoculum were plated onto TSB agar plates. The plates were grown at 37° C. for 24 h, imaged, and the bacteria colonies were counted. The experiment was done in triplicate at each concentration level described above. Colony counts for each treatment were tabulated and the Log of the colony forming units/mL (Log CFU/mL) were determined. The mean and the standard error of the mean were calculated for each treatment.

For assay [2], the system named is Methicillin Resistant Staphylococcus aureus (MRSA USA 300). Briefly: Colony forming assay, spread plate, MRSA USA 300. Particulars: Tobramycin 600 μg/mL; compared to the untreated control; 24 h; FIGS. 6A-6B. Format: cell-based. The method, then: A fresh culture of pathogenic isolate was used in these examples. The bacterial strains used were Methicillin Resistant Staphylococcus aureus (MRSA USA 300), Pseudomonas aeruginosa ATCC 27312, and Candida albicans ATCC 64550.
FIG. 5 illustrates the spread plate method used in these examples. In sum, agar plates were made, bacteria were diluted to 10^6 or 10^8 CFU/mL, bacteria and drug were mixed together and then plated. Glass spreading beads were used because they give a better bacterial spread. Plates were incubated for 24 hrs then the colonies that formed were counted.
Proliferating cultures of Methicillin Resistant Staphylococcus aureus (MRSA, USA 300) were used in a colony forming assay. Freeze-dried bacteria culture of MRSA was recovered by swabbing a 3-cm diameter growth area and resuspending it to obtain a final inoculum suspension of approximately 10^8 CFU/mL. The concentration was confirmed using historical optical density measurements. The total compound BM3103 was suspended in a 70% v/v alcohol gel formulation (Formulation A) before the introduction of bacteria, with the vehicle consisting of solely the 70% v/v alcohol gel. MRSA at 10^8 CFU/mL was challenged with equal parts of a high, medium, and low dose of BM3103, vehicle formulation, positive control (Tobramycin, 600 μg/mL), or untreated control (phosphate buffered saline). The inoculum was plated on Tryptic Soy Broth plates at 37° C. for 24 h. Plates were photographed and counted. The treatment for each experiment was done in triplicate, and the experiment was repeated three times, for a total of 9 plates per group.
Colony counts for each treatment were tabulated and the Log of the colony forming units/mL (Log CFU/mL) was determined. The mean and standard deviation of the Log CFU/mL were calculated for each treatment. A one-way analysis of variance was performed at a 95% confidence interval.

Assay [3] concerns S. typhimurium TA98. Briefly: Dose range finding colony forming assay, strain TA98 with metabolic activation. The conditions noted are these: positive control, 2 μg/plate. Format: cell-based. The method, then: (§1) A series of dose range finding assays were performed with five bacterial strains, S. typhimurium TA97a, TA98, TA100, TA1535, and E. coli WP2 uvrA pKM101, with and without metabolic activation at three plates per dose. The following doses, along with positive and negative controls, were tested: 5000, 2500, 1250, 500, 250, 125, 50, 20, 10, 5, 2, 1, and 0.2 μg/plate. The plates were evaluated for toxicity (a decrease in plate counts with increasing dose and/or a visible thinning of the background lawn) and for precipitation of the test article. Metabolic activation was included in some samples by adding phenobarbital/benzoflavone-induced rat liver S9 fractions with cofactors (S9 mix). Prior to use, freshly thawed aliquots of rat liver S9 were mixed with a sterile cofactor mix. The S9 mix contains a 10% liver S9 concentration and was refrigerated or stored on ice until used. When testing with metabolic activation, the S9 mix was used in the assay tube in place of phosphate buffer.
(§2) Dosing formulations were prepared to deliver all doses in a constant volume of 0.1 mL. The highest dose was prepared from test article weighed to the nearest 0.1 mg and the remaining formulations were prepared as serial dilutions from the high dose stock formulation. Using a permanent marking pen or computer printed labels, assay plates were labeled with the project and study numbers and the date. Assay plates and tubes were labeled with a unique identifier, which was used to match the assay tubes with the properly identified minimal glucose agar plate.
(§3) The pre-incubation method was used to perform the assay. The assay mix consisted of 0.1 mL of the test article formulation or control article, 0.5 mL S9 mix or phosphate buffer, and 0.1 mL of bacterial culture. Assay tubes were incubated at 37±1° C. with gentle agitation for 20±1 minutes, then 2.0-2.5 mL top agar was added to the assay mix and the top agar/assay mix poured onto appropriately labeled minimal glucose agar plates. Once the top agar hardened, the plates were inverted and incubated at 37±1° C. for 48±2 hours. Plates were counted with the Sorcerer (v. 2.2)/Ames Study Manager (v. 1.2.4) system from Perceptive Instruments (Suffolk, UK). With this system, plate counts are automatically transferred from the plate imager (Sorcerer) to a Study Manager spreadsheet, and the data are stored in a secure manner on an Oracle database. Some plates were hand counted, e.g., if sample precipitate interferes with automatic counting or toxicity results in the formation of microcolonies, in which case, counts for these plates were entered into the spreadsheet manually. Plates were scored also with the extent of colonization by a post fix code.

Assay [4] deals with S. typhimurium TA97a. Briefly: Dose range finding colony forming assay, strain TA97a with metabolic activation. Format: cell-based. Particulars: positive control, 2.5 μg/plate. The procedure:
as §1, §2, §3

Assay [5] deals with S. typhimurium TA1535. Briefly: Dose range finding colony forming assay, strain TA1535 without metabolic activation. The conditions noted are these: positive control, 1 μg/plate. Format: cell-based. The procedure: as §1, §2, §3
For assay [6], the system named is wild type E. Coli. Particulars: previous data; cited from earlier work.
Assay [7] relates to S. typhimurium TA100. Kind of assay: Dose range finding colony forming assay, strain TA100 with metabolic activation. Format: cell-based. The conditions noted are these: positive control, 2 μg/plate. The method, then: as §1, §2, §3
Assay [8] deals with NEB 5 α competent E. coli. Briefly: Bacterial colony forming assay (Examples 6-9). It is filed as cell-based. The conditions noted are these: alcohol gel. The method, then:
NEB 5 α competent E. coli were retrieved from frozen cultures and grown overnight in a bacterial incubator at 37° C. Proliferating cultures of bacteria were used in a colony forming assay by adding 25 μL of bacteria from the overnight culture to 10 mL of fresh Lysogeny Broth (LB; Bertani, G. (2004). “Lysogeny at mid-twentieth century: P1, P2, and other experimental systems”. Journal of Bacteriology. 186 (3): 595-600. PMC 321500. PMID 14729683. doi:10.1128/JR.186.3.595-600.2004). 1 mL of this diluted bacteria was added to various dilutions of formulations of substituted tolan compounds as described in Table C, below and in charts of the corresponding Figures.
One mL of each formulation was mixed with 1 mL of diluted bacteria in LB and put onto agar plates. Alcohol gels were allowed to dry and incubated overnight for 16-18 hrs. Control plates consisted of 2 mL alcohol gel plus 1 mL diluted bacteria, resulting in a colony count of less than 10 colonies, a 1 mL alcohol gel plus 1 mL diluted bacteria, resulting in a partial lawn of bacteria (colonies were too close to count appropriately), 1 mL diluted bacteria alone, resulting in a full lawn of bacteria (no distinguishable colonies), and an appropriate dilution of PEG-400 and HPβCD into 1 mL of alcohol gel plus 1 mL diluted bacteria, resulting in a lawn of bacteria. Plate area was then selected and the Image J colony counter was used to obtain colony counts (Size (pixels squared) 5-1000 and circularity 0.5-1).

The structures appear in SMILES notation.

As to `NC[C@H]1O[C@H](O[C@H]2[C@H](O)[C@@H](O[C@H]3O[C@H](CO)[C@@H](O)[C@H](N)[C@H]3O)[C@H](N)C[C@@H]2N)[C@H](N)C[C@@H]1O` [Tobramycin, reference compound], the “Reduction of MRSA USA 400 counts” value in assay [1] is 4 fold. Further, the “Reduction of MRSA USA 300 counts” value in assay [2] amounted to 6 fold.
As for `Nc1ccc2cc3ccccc3cc2c1` [Compound 2A, 2-Aminoanthracene, reference compound], the Colony forming units/plate in assay [3] is recorded as 2315.0 colony forming units/plate; in assay [4] it was 3241.3 colony forming units/plate.
Take `[N-]=[N+]=[N-]` [NaN3, Sodium Azide, reference compound]: the Colony forming units/plate in assay [5] is 714.7 colony forming units/plate.
Take `Oc1ccc(C#Cc2cc(O)cc(O)c2)cc1` [3,5,4′-trihydroxytolan]: in assay [6], the “Effectiveness against wild type E. Coli” value is listed as “ineffective”.
Turning to `c1ccc2c(c1)cc1ccc3cccc4ccc2c1c34` [BAP_Moltox, Benzo(a) pyrene_Moltox, reference compound], in assay [7], the Colony forming units/plate is on record as 806.0 colony forming units/plate.
For the compound `COc1ccc(C#Cc2ccc(OC)c(OC)c2)cc1` [BM3303, 3,4,4′-trimethoxytolan], the “Inhibition of E. coli growth” value in assay [8] (1.11 mM, FIG. 4) is given as “an inhibitor to E. coli”; in assay [8] (concentrations 10-fold diluted from 1.11 mM, FIG. 4), “less so”. Moreover, the “Dose dependence of inhibition of E. coli” value in assay [8] (FIG. 4) is reported as “dose dependent inhibitory effects”.
Consider `Oc1ccc(C#Cc2ccc(C(F)(F)F)cc2)cc1` [BM3213, 4-hydroxy-4′-(trifluoro)methyltolan], for which the “Inhibition of E. coli growth” value in assay [8] (2.23 mM, FIG. 3) was “very inhibitory to E. coli”; in assay [8] (concentrations 10 fold diluted from 2.23 mM, FIG. 3), “less so”.
